Results reported in patent publication US20240252677A1, “ONE-COMPONENT DELIVERY SYSTEM FOR NUCLEIC ACIDS” (The Trustees of the University of Pennsylvania, priority 2021, published 2024).

Key:
[1] = test system: liver; test: In vivo mRNA delivery, IVIS imaging of organs: liver; parameters: species or system mice; key to Organs with luminescence: liver: strong: Strong meant the luminescence intensity in that organ was relatively high, compared to other organs; weak: Weak meant the luminescence intensity in that organ was relatively low, compared to other organs; details: Table 17; mice, IVIS, 4-6 h after injection; intensity relative to other organs
[2] = Stability of DNPs by DLS after storage at 5° C.; format: physicochemical; parameters: key: Excellent: the original sizes and distribution types remained almost the same after storage; Good: the original sizes and distribution types changed slightly (size difference was less than 100 nm) or the original size remained almost the same but the DLS curve showed more size distributions after storage
Method: The stability of the DNPs as assayed by DLS. All the samples are prepared in acetate buffer. The stabilities of the constructs were ranked: Excellent (in bold)—the original sizes and distribution remains almost the same after storage; Good—the original relatively big sizes became smaller or broad size distribution became narrower; Not stable—the original relatively big sizes or broad size distribution remained almost the similar level, or the original relatively small sizes became bigger or narrow size distribution became broader.

[3] = test system: BALB/c mice; test: In vivo mRNA delivery in mice with DNPs, whole-body bioluminescence imaging (IVIS)
[4] = Stability of DNPs by DLS after storage at 5° C.; format: physicochemical; parameters: key to Original size distribution type (DLS curve) / Size distribution type (DLS curve): U: DLS curve showed unimodal size distribution; B: DLS curve showed bimodal size distribution; M: DLS curve showed multimodal size distribution; details: for pH Sample: DNPs: IAJD 4.0 mg/mL + Luc-mRNA 0.1 mg/mL, injection in acetate buffer pH 4.00; for PDI / Size (d, nm) / Original size distribution type (DLS curve): IAJD 4.0 mg/mL + Luc-mRNA 0.1 mg/mL; for PDI / Size (d, nm): acetate buffer; for Original size distribution type (DLS curve): before storage, acetate buffer pH 4.00
Outline: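 DNPs in acetate buffer sized by DLS after storage at 5 °C. Stability ranked Excellent, Good or Not stable according to retention, shrinkage or growth of original size and narrowing or broadening of size distribution.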

[5] = test system: HEK293T cells; test: In vitro Luc-mRNA transfection, luciferase luminescence expression in HEK293T cells; format: cell-based, human; parameters: unit not given here; details: Table 16; HEK 293T cells, 125 ng/well, n=3
Outline: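 HEK293T cells were transfected with nucleoside-modified firefly luciferase mRNA at 125 ng/well delivered in the test particles. TransIT and MC3-based LNPs at equal mRNA dose served as comparators. After 24 h (18-20 h in some runs) at 37° C the cells were lysed, and luciferase luminescence was read on a luminometer, in triplicate.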

[6] = Table 20, nonsymmetric IAJDs and MC3-Luc-mRNA

| pH Sample [4] | Original size distribution type (DLS curve) [4] | Ranking of stability ([2]; after 27 days at 5° C.) | Size distribution type (DLS curve) ([4]; after 27 days at 5° C.) | PDI ([4]; after 27 days at 5° C.) | Size (d, nm) ([4]; after 27 days at 5° C.) [nm] | Structure (SMILES) | Organs with luminescence: liver [1] | In vivo activity (total flux, p/s) ([3]; Table 19, nonsymmetric IAJDs) | Luminescence [5] | In vivo activity (total flux, p/s) [3, 6] | also measured |
| --- | --- | --- | --- | --- | --- | --- | --- | --- | --- | --- | --- |
| 4.50 | (U) | – | – | – | – | CCCCCCCCCCCCCCCOc1cc(COC(=O)CCCN2CCN(C)CC2)cc(OCCCCCCCCCCCCCC)c1 [IAJD 147, 3-(Pentadecyloxy)-5-(tetradecyloxy)benzyl 4-(4-methylpiperazin-1-yl)butanoate] | liver (weak), | 9.24 × 10^6 p/s | 5,844 | – | Ranking of stability ([2]; after 19 days at 5° C.): Excellent; Size distribution type (DLS curve) ([4]; after 19 days at 5° C.): (U); PDI ([4]; after 19 days at 5° C.): 0.283; Size (d, nm) ([4]; after 19 days at 5° C.): 145 nm |
| 4.50 | (B) | – | – | – | – | CCCCCCCCCCCCCCCCOc1cc(COC(=O)CCCN2CCN(C)CC2)cc(OCCCCCCCCCCCCCCC)c1 [IAJD 149, 3-(Hexadecyloxy)-5-(pentadecyloxy)benzyl 4-(4-methylpiperazin-1-yl)butanoate] | liver (weak), | 2.26 × 10^7 p/s | 149,935 | – | Ranking of stability ([2]; after 19 days at 5° C.): Excellent; Size distribution type (DLS curve) ([4]; after 19 days at 5° C.): (B); PDI ([4]; after 19 days at 5° C.): 0.291; Size (d, nm) ([4]; after 19 days at 5° C.): 193 nm |
| 4.47 | (U) | – | – | – | – | CCCCCCCCCCCCCOc1cc(COC(=O)CCCN2CCN(C)CC2)cc(OCCCCCCCCCCC)c1 [IAJD 116, 3-(Tridecyloxy)-5-(undecyloxy)benzyl 4-(4-methylpiperazin-1-yl)butanoate] | liver (weak), | 2.38 × 10^7 p/s | 192,213 | – | Ranking of stability ([2]; after 62 days at 5° C.): Excellent; Size distribution type (DLS curve) ([4]; after 62 days at 5° C.): (U); PDI ([4]; after 62 days at 5° C.): 0.272; Size (d, nm) ([4]; after 62 days at 5° C.): 168 nm |
| 4.40 | (B) | – | – | – | – | CCCCCCCCCCCCCCCCCCOc1cc(COC(=O)CCCN2CCN(CCO)CC2)cc(OCCCCCCCCCCC)c1 [IAJD 128, 3-(Octadecyloxy)-5-(undecyloxy)benzyl 4-(4-(2-hydroxyethyl)piperazin-1-yl)butanoate] | liver (weak), | 5.53 × 10^7 p/s | 449,311 | 5.53 × 10^7 p/s | Ranking of stability ([2]; after 70 days at 5° C.): Excellent; Size distribution type (DLS curve) ([4]; after 70 days at 5° C.): (B); PDI ([4]; after 70 days at 5° C.): 0.459; Size (d, nm) ([4]; after 70 days at 5° C.): 210 nm |
| 4.40 | (B) | Excellent | (U) | 0.276 | 216 | CCCCCCCCCCCCCCCOc1cc(COC(=O)CCCN2CCN(CCO)CC2)cc(OCCCCCCCCCCCC)c1 [IAJD 144, 3-(Dodecyloxy)-5-(pentadecyloxy)benzyl 4-(4-(2-hydroxyethyl)piperazin-1-yl)butanoate] | liver (weak), | 1.39 × 10^7 p/s | 253,672 | – | – |
| 4.46 | (U) | – | – | – | – | CCCCCCCCCCCCCCCCCOc1cc(COC(=O)CCCN2CCN(CCO)CC2)cc(OCCCCCCCCCCC)c1 [IAJD 127, 3-(Heptadecyloxy)-5-(undecyloxy)benzyl 4-(4-(2-hydroxyethyl)piperazin-1-yl)butanoate] | liver (weak), | 1.07 × 10^8 p/s | 147,731 | – | Ranking of stability ([2]; after 62 days at 5° C.): Good; Size distribution type (DLS curve) ([4]; after 62 days at 5° C.): (B); PDI ([4]; after 62 days at 5° C.): 0.248; Size (d, nm) ([4]; after 62 days at 5° C.): 263 nm |
| 4.40 | (U) | Excellent | (U) | 0.285 | 227 | CCCCCCCCCCCCCCCOc1cc(COC(=O)CCCN2CCN(CCO)CC2)cc(OCCCCCCCCCCCCC)c1 [IAJD 146, 3-(Pentadecyloxy)-5-(tridecyloxy)benzyl 4-(4-(2-hydroxyethyl)piperazin-1-yl)butanoate] | liver (strong), | 4.70 × 10^7 p/s | 50,625 | – | – |
| 4.79 | (U) | – | – | – | – | CCCCCCCCCCCCCCCCOc1cc(COC(=O)CCCN2CCN(C)CC2)cc(OCCCCCCCCCCCCC)c1 [IAJD 173, 3-(Hexadecyloxy)-5-(tridecyloxy)benzyl 4-(4-methylpiperazin-1-yl)butanoate] | liver (strong), | 1.23 × 10^8 p/s | 2,302 | 1.23 × 10^8 p/s | Ranking of stability ([2]; after 21 days at 5° C.): Good; Size distribution type (DLS curve) ([4]; after 21 days at 5° C.): (B); PDI ([4]; after 21 days at 5° C.): 0.376; Size (d, nm) ([4]; after 21 days at 5° C.): 132 nm |
| 4.43 | (B) | – | – | – | – | CCCCCCCCCCCCCCCOc1cc(COC(=O)CCCN2CCN(C)CC2)cc(OCCCCCCCCCCC)c1 [IAJD 118, 3-(Pentadecyloxy)-5-(undecyloxy)benzyl 4-(4-methylpiperazin-1-yl)butanoate] | liver (weak), | 1.46 × 10^7 p/s | 568,354 | – | Ranking of stability ([2]; after 75 days at 5° C.): Excellent; Size distribution type (DLS curve) ([4]; after 75 days at 5° C.): (B); PDI ([4]; after 75 days at 5° C.): 0.262; Size (d, nm) ([4]; after 75 days at 5° C.): 105 nm |
| 4.57 | (U) | Excellent | (U) | 0.296 | 153 | CCCCCCCCCCCCCCCOc1cc(COC(=O)CCCN2CCN(CCO)CC2)cc(OCC(CC)CCCC)c1 (stereo not shown) [IAJD 136, 3-((2-Ethylhexyl)oxy)-5-(pentadecyloxy)benzyl 4-(4-(2-hydroxyethyl)piperazin-1-yl)butanoate] | liver (weak), | 1.04 × 10^7 p/s | 283,656 | – | – |
| 4.62 | (U) | Excellent | (U) | 0.286 | 156 | CCCCCCCCCCCCCCCOc1cc(COC(=O)CCCN2CCN(C)CC2)cc(OCCCCCCCCCC)c1 [IAJD 141, 3-(Decyloxy)-5-(pentadecyloxy)benzyl 4-(4-methylpiperazin-1-yl)butanoate] | liver (strong), | 2.06 × 10^7 p/s | 140,589 | – | – |
| 4.88 | (U) | – | – | – | – | CCCCCCCCCCCCCCOc1cc(COC(=O)CCCN2CCN(C)CC2)cc(OCCCCCCCCCCCCC)c1 [IAJD 171, 3-(Tetradecyloxy)-5-(tridecyloxy)benzyl 4-(4-methylpiperazin-1-yl)butanoate] | liver (strong), | 7.68 × 10^7 p/s | 1,436 | 7.68 × 10^7 p/s | Ranking of stability ([2]; after 21 days at 5° C.): Excellent; Size distribution type (DLS curve) ([4]; after 21 days at 5° C.): (U); PDI ([4]; after 21 days at 5° C.): 0.277; Size (d, nm) ([4]; after 21 days at 5° C.): 175 nm |
| 4.44 | (U) | – | – | – | – | CCCCCCCCCCCCCCOc1cc(COC(=O)CCCN2CCN(CCO)CC2)cc(OCCCCCCCCCCC)c1 [IAJD 125, 3-(Tetradecyloxy)-5-(undecyloxy)benzyl 4-(4-(2-hydroxyethyl)piperazin-1-yl)butanoate] | liver (weak), | 2.15 × 10^8 p/s | 119,405 | 2.15 × 10^8 p/s | Ranking of stability ([2]; after 62 days at 5° C.): Excellent; Size distribution type (DLS curve) ([4]; after 62 days at 5° C.): (U); PDI ([4]; after 62 days at 5° C.): 0.283; Size (d, nm) ([4]; after 62 days at 5° C.): 276 nm |
